Data: US20080114007A1 (priority 2006, published 2008)

Biological target: CSF-1R (Homo sapiens, UniProt P07333)
Assay: Peptide (non-phosphorylated) assay, fluorescence polarization competition immunoassay
Format: biochemical
Conditions: 0.7 nM CSF-1R, 308 μM SYEGNSYTFIDPTQ peptide, 1 mM ATP, 80 min; mean of at least three determinations; read-out: c-fms Peptide IC50
Method: The kinase reaction was initiated by adding 1 μL of 10 mM ATP in assay buffer. […] Positive and negative control wells were included on each plate, where 4% DMSO in assay buffer was substituted for the compound; in addition, positive control wells received 1.2 μL of 50 mM EDTA before the start of the reaction.
The plates were covered and incubated at room temperature for 80 min. Reactions were stopped by addition of 1.2 μL of 50 mM EDTA. Each well then received 10 μL of a 1:1:3 mixture of 10× anti-phosphotyrosine antibody, 10×PTK green tracer, and FP dilution buffer, respectively (Cat. # P2837, Invitrogen, Carlsbad, Calif.). The plates were covered, incubated for 30 min at room temperature, and the fluorescence polarization was read on an Analyst plate reader (Molecular Devices).

Sequence of CSF-1R (P07333 20-972): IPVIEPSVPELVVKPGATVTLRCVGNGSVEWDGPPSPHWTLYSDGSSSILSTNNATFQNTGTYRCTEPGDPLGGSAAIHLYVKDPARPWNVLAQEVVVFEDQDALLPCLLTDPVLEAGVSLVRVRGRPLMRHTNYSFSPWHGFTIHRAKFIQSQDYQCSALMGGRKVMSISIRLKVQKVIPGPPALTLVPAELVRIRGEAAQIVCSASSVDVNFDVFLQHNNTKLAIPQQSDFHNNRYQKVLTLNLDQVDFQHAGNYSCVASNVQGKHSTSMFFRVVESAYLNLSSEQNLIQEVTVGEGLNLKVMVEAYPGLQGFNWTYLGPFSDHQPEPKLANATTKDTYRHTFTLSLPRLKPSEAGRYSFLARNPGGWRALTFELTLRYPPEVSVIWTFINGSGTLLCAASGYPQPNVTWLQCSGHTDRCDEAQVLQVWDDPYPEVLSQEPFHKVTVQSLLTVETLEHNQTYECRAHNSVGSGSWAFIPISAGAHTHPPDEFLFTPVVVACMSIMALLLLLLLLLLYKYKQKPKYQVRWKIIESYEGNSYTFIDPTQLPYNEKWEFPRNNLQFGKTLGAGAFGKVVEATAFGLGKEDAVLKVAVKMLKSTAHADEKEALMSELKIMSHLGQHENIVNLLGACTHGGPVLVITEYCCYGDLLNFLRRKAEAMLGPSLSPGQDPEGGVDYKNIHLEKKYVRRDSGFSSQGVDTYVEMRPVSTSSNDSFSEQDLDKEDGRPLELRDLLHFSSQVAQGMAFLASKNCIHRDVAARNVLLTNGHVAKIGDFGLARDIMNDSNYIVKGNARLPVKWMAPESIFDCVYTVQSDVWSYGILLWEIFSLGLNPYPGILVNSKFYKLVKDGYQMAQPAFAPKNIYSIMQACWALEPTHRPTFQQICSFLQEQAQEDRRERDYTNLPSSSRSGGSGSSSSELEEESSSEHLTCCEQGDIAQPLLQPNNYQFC

| SMILES | IC50 [pM] |
| --- | --- |
| CONC(=O)c1cn(-c2ccc3c(c2)CCC3)c2nc(Nc3cccc(OC4CN5CCC4CC5)c3)ncc2c1=O (stereo not drawn) [Cpd 267, 2-[3-(1-aza-bicyclo[2.2.2]oct-3-yloxy)-phenylamino]-8-indan-5-yl-5-oxo-5,8-dihydro-pyrido[2,3-d]pyrimidine-6-carboxylic acid methoxy-amide] | 420 |
| CCc1ccc(-n2cc(C(=O)NOC)c(=O)c3cnc(Nc4cccc(OC5CN6CCC5CC6)c4)nc32)cc1 (stereo not drawn) [Cpd 247, 2-[3-(1-aza-bicyclo[2.2.2]oct-3-yloxy)-phenylamino]-8-(4-ethyl-phenyl)-5-oxo-5,8-dihydro-pyrido[2,3-d]pyrimidine-6-carboxylic acid methoxy-amide] | 590 |
| COCCNC(=O)c1cn(-c2ccc3c(c2)CCC3)c2nc(Nc3ccc(CCN4CCCC4)cc3)ncc2c1=O [Cpd 132, 8-indan-5-yl-5-oxo-2-[4-(2-pyrrolidin-1-yl-ethyl)-phenylamino]-5,8-dihydro-pyrido[2,3-d]pyrimidine-6-carboxylic acid (2-methoxy-ethyl)-amide] | 12000 |
| CONC(=O)c1cn(-c2ccc3c(c2)CCC3)c2nc(Nc3ccc(CCNCCO)cc3)ncc2c1=O [Cpd 97, 2-{4-[2-(2-hydroxy-ethylamino)-ethyl]-phenylamino}-8-indan-5-yl-5-oxo-5,8-dihydro-pyrido[2,3-d]pyrimidine-6-carboxylic acid methoxy-amide] | 630 |
| CCONC(=O)c1cn(C2CCCCC2)c2nc(Nc3ccc(CCN4CCN(C)CC4)cc3)ncc2c1=O [Cpd 19, 8-cyclohexyl-2-{4-[2-(4-methyl-piperazin-1-yl)-ethyl]-phenylamino}-5-oxo-5,8-dihydro-pyrido[2,3-d]pyrimidine-6-carboxylic acid ethoxy-amide] | 1000 |
| CONC(=O)c1cn(-c2ccc3c(c2)CCC3)c2nc(Nc3ccc(CCO)cc3)ncc2c1=O [Cpd 79, 2-[4-(2-hydroxy-ethyl)-phenylamino]-8-indan-5-yl-5-oxo-5,8-dihydro-pyrido[2,3-d]pyrimidine-6-carboxylic acid methoxy-amide] | 870 |
| CCc1ccc(-n2cc(C(=O)NOC(C)C)c(=O)c3cnc(Nc4ccc(C5CCN(S(C)(=O)=O)CC5)cc4)nc32)cc1 [Cpd 60, 8-(4-ethyl-phenyl)-2-[4-(1-methanesulfonyl-piperidin-4-yl)-phenylamino]-5-oxo-5,8-dihydro-pyrido[2,3-d]pyrimidine-6-carboxylic acid isopropoxy-amide] | 7000 |
| CONC(=O)c1cn(-c2ccc3c(c2)CCC3)c2nc(Nc3ccc(CC(=O)NN4CCCCC4)cc3)ncc2c1=O [Cpd 102, 8-indan-5-yl-5-oxo-2-[4-(piperidin-1-ylcarbamoylmethyl)-phenylamino]-5,8-dihydro-pyrido[2,3-d]pyrimidine-6-carboxylic acid methoxy-amide] | 2300 |
| CONC(=O)c1cn(-c2ccc3c(c2)CCC3)c2nc(Nc3ccc(C4CCN(CCC(=O)O)CC4)cc3)ncc2c1=O [Cpd 84, 3-{4-[4-(8-indan-5-yl-6-methoxycarbamoyl-5-oxo-5,8-dihydro-pyrido[2,3-d]pyrimidin-2-ylamino)-phenyl]-piperidin-1-yl}-propionic acid] | 2000 |
| CN1CCN(CCc2ccc(Nc3ncc4c(=O)c(C(=O)NCCO)cn(-c5ccc6c(c5)CCC6)c4n3)cc2)CC1 [Cpd 65, 8-indan-5-yl-2-{4-[2-(4-methyl-piperazin-1-yl)-ethyl]-phenylamino}-5-oxo-5,8-dihydro-pyrido[2,3-d]pyrimidine-6-carboxylic acid (2-hydroxy-ethyl)-amide] | 680 |
| CONC(=O)c1cn(C2CCCC2)c2nc(Nc3ccc(CCN4CCCC4)cc3)ncc2c1=O [Cpd 39, 8-cyclopentyl-5-oxo-2-[4-(2-pyrrolidin-1-yl-ethyl)-phenylamino]-5,8-dihydro-pyrido[2,3-d]pyrimidine-6-carboxylic acid methoxy-amide] | 1100 |
| CONC(=O)c1cn(-c2ccc(Cl)cc2)c2nc(Nc3ccc(CCN4CCN(C)CC4)cc3)ncc2c1=O [Cpd 34, 8-(4-chloro-phenyl)-2-{4-[2-(4-methyl-piperazin-1-yl)-ethyl]-phenylamino}-5-oxo-5,8-dihydro-pyrido[2,3-d]pyrimidine-6-carboxylic acid methoxy-amide] | 3800 |
| C#Cc1ccc(-n2cc(C(N)=O)c(=O)c3cnc(Nc4ccc(CCN5CCN(C)CC5)cc4)nc32)cc1 [Cpd 30, 8-(4-ethynyl-phenyl)-2-{4-[2-(4-methyl-piperazin-1-yl)-ethyl]-phenylamino}-5-oxo-5,8-dihydro-pyrido[2,3-d]pyrimidine-6-carboxylic acid amide] | 14000 |
| CONC(=O)c1cn(-c2ccc3c(c2)CCC3)c2nc(Nc3ccc(C4CCN(C(C)=O)CC4)cc3)ncc2c1=O [Cpd 69, 2-[4-(1-acetyl-piperidin-4-yl)-phenylamino]-8-indan-5-yl-5-oxo-5,8-dihydro-pyrido[2,3-d]pyrimidine-6-carboxylic acid methoxy-amide] | 1200 |

Second part, the compound after the results:

| IC50 [pM] | SMILES |
| --- | --- |
| 590 | CONC(=O)c1cn(-c2ccc3c(c2)CCC3)c2nc(Nc3ccc(CCN4CCC4)cc3)ncc2c1=O [Cpd 262, 2-[4-(2-azetidin-1-yl-ethyl)-phenylamino]-8-indan-5-yl-5-oxo-5,8-dihydro-pyrido[2,3-d]pyrimidine-6-carboxylic acid methoxy-amide] |
| 66000 | CCONC(=O)c1cn(C2CC2)c2nc(Nc3ccc(CCN4CCCC4)cc3)ncc2c1=O [Cpd 142, 8-cyclopropyl-5-oxo-2-[4-(2-pyrrolidin-1-yl-ethyl)-phenylamino]-5,8-dihydro-pyrido[2,3-d]pyrimidine-6-carboxylic acid ethoxy-amide] |
| 590 | CONC(=O)c1cn(-c2ccc(OC(F)(F)F)cc2)c2nc(Nc3ccc(C4CCNCC4)cc3)ncc2c1=O [Cpd 176, 5-oxo-2-(4-piperidin-4-yl-phenylamino)-8-(4-trifluoromethoxyphenyl)-5,8-dihydro-pyrido[2,3-d]pyrimidine-6-carboxylic acid methoxy-amide] |
| 400 | CCc1ccc(-n2cc(C(=O)NOC)c(=O)c3cnc(Nc4ccc5c(c4)CCN5S(C)(=O)=O)nc32)cc1 [Cpd 280, 8-(4-ethyl-phenyl)-2-(1-methanesulfonyl-2,3-dihydro-1H-indol-5-ylamino)-5-oxo-5,8-dihydro-pyrido[2,3-d]pyrimidine-6-carboxylic acid methoxy-amide] |
| 660 | CONC(=O)c1cn(-c2ccc3c(c2)CCC3)c2nc(Nc3ccc(CCN4CC[C@H](F)C4)cc3)ncc2c1=O [Cpd 253, 2-(4-{2-[(3S)-(3-fluoro-pyrrolidin-1-yl)]-ethyl}-phenylamino)-8-indan-5-yl-5-oxo-5,8-dihydro-pyrido[2,3-d]pyrimidine-6-carboxylic acid methoxy-amide] |
| 900 | CONC(=O)c1cn(-c2ccc3c(c2)CCC3)c2nc(Nc3ccc4[nH]ccc4c3)ncc2c1=O [Cpd 287, 8-indan-5-yl-2-(1H-indol-5-ylamino)-5-oxo-5,8-dihydro-pyrido[2,3-d]pyrimidine-6-carboxylic acid methoxy-amide] |
| 870 | CCc1ccc(-n2cc(C(=O)NOC)c(=O)c3cnc(Nc4ccc(CCN5CCN(C)C(=O)C5)cc4)nc32)cc1 [Cpd 221, 8-(4-ethyl-phenyl)-2-{4-[2-(4-methyl-3-oxo-piperazin-1-yl)-ethyl]-phenylamino}-5-oxo-5,8-dihydro-pyrido[2,3-d]pyrimidine-6-carboxylic acid methoxy-amide] |
| 950 | COCCOc1cccc(Nc2ncc3c(=O)c(C(=O)NOC)cn(-c4ccc5c(c4)CCC5)c3n2)c1 [Cpd 261, 8-indan-5-yl-2-[3-(2-methoxy-ethoxy)-phenylamino]-5-oxo-5,8-dihydro-pyrido[2,3-d]pyrimidine-6-carboxylic acid methoxy-amide] |
| 600 | CCONC(=O)c1cn(-c2ccc(CC)cc2)c2nc(Nc3ccc(C4CCN(CCCO)CC4)cc3)ncc2c1=O [Cpd 186, 8-(4-ethyl-phenyl)-2-{4-[1-(3-hydroxy-propyl)-piperidin-4-yl]-phenylamino}-5-oxo-5,8-dihydro-pyrido[2,3-d]pyrimidine-6-carboxylic acid ethoxy-amide] |
| 640 | CONC(=O)c1cn(-c2ccc3c(c2)CCC3)c2nc(Nc3ccc(CCN4CCC(O)CC4)cc3)ncc2c1=O [Cpd 238, 2-{4-[2-(4-hydroxy-piperidin-1-yl)-ethyl]-phenylamino}-8-indan-5-yl-5-oxo-5,8-dihydro-pyrido[2,3-d]pyrimidine-6-carboxylic acid methoxy-amide] |
| 290 | CCc1ccc(-n2cc(C(=O)NOC)c(=O)c3cnc(Nc4ccc(C5CCCCN5CC)cc4)nc32)cc1 (stereo not drawn) [Cpd 245, 8-(4-ethyl-phenyl)-2-[4-(1-ethyl-piperidin-2-yl)-phenylamino]-5-oxo-5,8-dihydro-pyrido[2,3-d]pyrimidine-6-carboxylic acid methoxy-amide] |
| 620 | CCc1ccc(-n2cc(C(=O)NOC)c(=O)c3cnc(Nc4ccc(NCCS(C)(=O)=O)cc4)nc32)cc1 [Cpd 217, 8-(4-ethyl-phenyl)-2-[4-(2-methanesulfonyl-ethylamino)-phenylamino]-5-oxo-5,8-dihydro-pyrido[2,3-d]pyrimidine-6-carboxylic acid methoxy-amide] |
| 4100 | CCc1ccc(-n2cc(C(=O)NOC)c(=O)c3cnc(Nc4ccc(C5CCN(CC(F)(F)F)CC5)cc4)nc32)cc1 [Cpd 188, 8-(4-ethyl-phenyl)-5-oxo-2-{4-[1-(2,2,2-trifluoro-ethyl)-piperidin-4-yl]-phenylamino}-5,8-dihydro-pyrido[2,3-d]pyrimidine-6-carboxylic acid methoxy-amide] |
